Source: ChEMBL document CHEMBL3751778, “Synthesis and biological evaluation of novel 7-O-lipophilic substituted baicalein derivatives as potential anticancer agents” (Medchemcomm, 2015)
Activity calls are given as the source filed them. The calls are words filed in the database; no cut-off is given here.

Assays:
[1] = test system: HepG2; assay: cells; conditions: Homo sapiens, HepG2, 48 h
[2] = test system: SW480; assay: Antiproliferative activity against human SW480 cells after 48 hrs by MTT assay; type: functional, cell-based; conditions: SW480, 48 h
[3] = Cytotoxicity against mouse BNL-CL2 cells after 48 hrs by MTT assay; type: cell-based; conditions: BNL CL.2, 48 h
[4] = Antiproliferative activity against human DLD1 cells after 48 hrs by MTT assay; type: functional, cell-based; conditions: DLD-1, 48 h
[5] = test system: HT-29; assay: cells; conditions: Homo sapiens, HT-29, 48 h
Description: Antiproliferative activity against human HT-29 cells after 48 hrs by MTT assay

[6] = Antioxidant activity assessed as ABTS radical scavenging activity after 6 mins by photometric analysis; type: physicochemical
[7] = Antioxidant activity assessed as DPPH radical scavenging activity after 30 mins by ELISA reader analysis; type: physicochemical
[8] = test system: SW480; assay: Cell cycle arrest in human SW480 cells assessed as accumulation at G2/M phase at 10 uM after 48 hrs by propidium iodide staining-based flow cytometric analysis (reference value: 8.57%); type: functional
[9] = Antiproliferative activity against human DLD1 cells after 24 hrs by MTT assay; type: functional, cell-based; conditions: DLD-1, 24 h
[10] = test system: SW480; assay: Cell cycle arrest in human SW480 cells assessed as accumulation at S phase at 5 uM after 48 hrs by propidium iodide staining-based flow cytometric analysis (reference value: 26.19%); type: functional
[11] = test system: SW480; assay: Cell cycle arrest in human SW480 cells assessed as accumulation at G1 phase at 10 uM after 48 hrs by propidium iodide staining-based flow cytometric analysis (reference value: 65.24%); type: functional
[12] = test system: SW480; assay: Induction of apoptosis in human SW480 cells assessed as early apoptotic cells at 20 uM after 48 hrs by annexin V-FITC/propidium iodide staining-based flow cytometric analysis; type: functional, cell-based
[13] = test system: SW480; assay: Induction of ROS generation in human SW480 cells after 48 hrs by DHE staining-based fluorescence assay; type: functional, cell-based
[14] = test system: SW480; assay: Induction of apoptosis in human SW480 cells assessed as chromatin condensation at 20 uM after 48 hrs by Hoechst 33258 staining-based fluorescence microscopic analysis; type: functional, cell-based
[15] = test system: SW480; assay: Cell cycle arrest in human SW480 cells assessed as accumulation at S phase at 50 uM after 48 hrs by propidium iodide staining-based flow cytometric analysis; type: functional
[16] = test system: SW480; assay: Induction of apoptosis in human SW480 cells assessed as nuclear shrinkage at 20 uM after 48 hrs by Hoechst 33258 staining-based fluorescence microscopic analysis; type: functional, cell-based
[17] = test system: SW480; assay: Induction of ROS generation in human SW480 cells assessed as superoxide anion level at 10 uM after 48 hrs by DHE staining-based fluorescence assay (reference value: 101.21 No_Unit); type: functional
[18] = test system: SW480; assay: Cell cycle arrest in human SW480 cells assessed as accumulation at G1 phase at 5 uM after 48 hrs by propidium iodide staining-based flow cytometric analysis (reference value: 65.24%); type: functional
[19] = test system: SW480; assay: Induction of ROS generation in human SW480 cells assessed as superoxide anion level at 20 uM after 48 hrs by DHE staining-based fluorescence assay (reference value: 101.21 No_Unit); type: functional
[20] = Antiproliferative activity against human DLD1 cells after 72 hrs by MTT assay; type: functional, cell-based; conditions: DLD-1, 72 h
[21] = test system: SW480; assay: Cell cycle arrest in human SW480 cells assessed as accumulation at S phase at 10 uM after 48 hrs by propidium iodide staining-based flow cytometric analysis (reference value: 26.19%); type: functional
[22] = test system: HT-29; assay: Antiproliferative activity against human HT-29 cells after 72 hrs by MTT assay; type: functional, cell-based; conditions: HT-29, 72 h
[23] = test system: SW480; assay: Cell cycle arrest in human SW480 cells assessed as accumulation at G1 phase at 20 uM after 48 hrs by propidium iodide staining-based flow cytometric analysis (reference value: 65.24%); type: functional
[24] = test system: SW480; assay: Induction of ROS generation in human SW480 cells assessed as superoxide anion level at 5 uM after 48 hrs by DHE staining-based fluorescence assay (reference value: 101.21); type: functional
[25] = test system: SW480; assay: Antiproliferative activity against human SW480 cells after 24 hrs by MTT assay; type: functional, cell-based; conditions: SW480, 24 h
[26] = test system: SW480; assay: Induction of apoptosis in human SW480 cells assessed as early apoptotic cells after 48 hrs by annexin V-FITC/propidium iodide staining-based flow cytometric analysis; type: functional, cell-based
[27] = test system: SW480; assay: Induction of apoptosis in human SW480 cells assessed as DNA fragmentation at 20 uM after 48 hrs by Hoechst 33258 staining-based fluorescence microscopic analysis; type: functional, cell-based
[28] = test system: SW480; assay: Induction of apoptosis in human SW480 cells assessed as late apoptotic cells at 20 uM after 48 hrs by annexin V-FITC/propidium iodide staining-based flow cytometric analysis; type: functional, cell-based
[29] = test system: HT-29; assay: Antiproliferative activity against human HT-29 cells after 24 hrs by MTT assay; type: functional, cell-based; conditions: HT-29, 24 h
[30] = test system: SW480; assay: Antiproliferative activity against human SW480 cells after 72 hrs by MTT assay; type: functional, cell-based; conditions: SW480, 72 h
[31] = test system: SW480; assay: Cell cycle arrest in human SW480 cells assessed as accumulation at S phase at 20 uM after 48 hrs by propidium iodide staining-based flow cytometric analysis (reference value: 26.19%); type: functional
[32] = test system: SW480; assay: Cell cycle arrest in human SW480 cells assessed as accumulation at G2/M phase at 20 uM after 48 hrs by propidium iodide staining-based flow cytometric analysis (reference value: 8.57%); type: functional
[33] = test system: SW480; assay: Cell cycle arrest in human SW480 cells assessed as accumulation at G2/M phase at 5 uM after 48 hrs by propidium iodide staining-based flow cytometric analysis (reference value: 8.57%); type: functional
[34] = test system: SW480; assay: Induction of apoptosis in human SW480 cells assessed as late apoptotic cells at 10 uM after 48 hrs by annexin V-FITC/propidium iodide staining-based flow cytometric analysis; type: functional, cell-based
[35] = Cytotoxicity against mouse BNL-CL2 cells assessed as induction of cell death at 20 uM after 48 hrs by MTT assay; type: cell-based; conditions: bnl-cl2, 48 h
[36] = test system: SW480; assay: Induction of apoptosis in human SW480 cells assessed as early apoptotic cells at 10 uM after 48 hrs by annexin V-FITC/propidium iodide staining-based flow cytometric analysis; type: functional, cell-based

## O=c1cc(-c2ccccc2)oc2cc(O)cc(O)c12 [CHRYSIN]
[1]
  IC50: 16.5 µM
[2]
  IC50: 31.1 µM
[3]
  IC50: > 40 µM
[4]
  IC50: 18.6 µM
[5]
  IC50: 19.5 µM

## CCCCOc1cc2oc(-c3ccccc3)cc(=O)c2c(O)c1O
[1]
  IC50: > 20 µM
[6]
  IC50: 14 µM
[2]
  IC50: > 20 µM
[3]
  IC50: > 20 µM
[4]
  IC50: > 20 µM
[7]
  IC50: 12.9 µM
[5]
  IC50: 19.5 µM

## O=c1c(O)c(-c2ccc(O)c(O)c2)oc2cc(O)cc(O)c12 [QUERCETIN]
[6]
  IC50: 7.26 µM
[7]
  IC50: 8.41 µM

## CC(C)=CCC/C(C)=C/COc1cc2oc(-c3ccccc3)cc(=O)c2c(O)c1O
[1]
  IC50: > 20 µM
[6]
  IC50: 20.4 µM
[2]
  IC50: 2.84 µM
[3]
  IC50: > 20 µM
[4]
  IC50: 9.77 µM
[7]
  IC50: 24.3 µM
[5]
  IC50: 17 µM

## O=c1cc(-c2ccccc2)oc2cc(O)c(O)c(O)c12 [BAICALEIN]
[8]
  Activity: 7.05%
[9]
  IC50: > 20 µM
[10]
  Activity: 28.61%
[11]
  Activity: 64.29%
[12]
  Activity: Active
[13]
  Activity: Dose-dependent effect
[14]
  Activity: Active
[15]
  Activity: Active
[16]
  Activity: Active
[17]
  Flu intensity: 99.49
[6]
  IC50: 15.5 µM
[18]
  Activity: 63.64%
[19]
  Flu intensity: 98.79
[20]
  IC50: > 20 µM
[2]
  IC50: 14.1 µM
[21]
  Activity: 28.65%
[22]
  IC50: 18.4 µM
[23]
  Activity: 64.54%
[3]
  IC50: > 40 µM
[4]
  IC50: 27.9 µM
[24]
  Flu intensity: 104.84
[25]
  IC50: 16.9 µM
[26]
  Activity: inactive
[7]
  IC50: 17.2 µM
[27]
  Activity: Active
[28]
  Activity: Active
[29]
  IC50: > 20 µM
[30]
  IC50: 11.6 µM
[31]
  Activity: 27.51%
[32]
  Activity: 7.95%
[5]
  IC50: 18.1 µM
[33]
  Activity: 7.75%

## CC(C)=CCC/C(C)=C/CC/C(C)=C/COc1cc2oc(-c3ccccc3)cc(=O)c2c(O)c1O
[8]
  Activity: 9.41%
[9]
  IC50: 16.1 µM
[34]
  Activity: Active
[35]
  Activity: < 20%
[10]
  Activity: 23.88%
[1]
  IC50: > 20 µM
[11]
  Activity: 57.2%
[13]
  Activity: Dose-dependent effect
[14]
  Activity: Active
[16]
  Activity: Active
[17]
  Flu intensity: 169.24
[6]
  IC50: 24 µM
[18]
  Activity: 68.64%
[19]
  Flu intensity: 192.86
[36]
  Activity: Active
[20]
  IC50: 6.86 µM
[2]
  IC50: 1.15 µM
[21]
  Activity: 33.33%
[22]
  IC50: 15.4 µM
[23]
  Activity: 43.3%
[3]
  IC50: > 20 µM
[4]
  IC50: 4.88 µM
[24]
  Flu intensity: 102.13
[25]
  IC50: > 20 µM
[26]
  Activity: Dose-dependent effect
[7]
  IC50: 24.6 µM
[27]
  Activity: Active
[29]
  IC50: > 20 µM
[30]
  IC50: 1.26 µM
[31]
  Activity: 50%
[32]
  Activity: 6.64%
[5]
  IC50: 14.9 µM
[33]
  Activity: 7.47%

## CC(C)=CCC/C(C)=C/CC/C(C)=C/COc1cc(O)c2c(=O)cc(-c3ccccc3)oc2c1
[1]
  IC50: > 20 µM
[2]
  IC50: > 20 µM
[3]
  IC50: > 20 µM
[4]
  IC50: > 20 µM
[5]
  IC50: > 20 µM

## COc1cccc2c1C(=O)c1c(O)c3c(c(O)c1C2=O)C[C@@](O)(C(=O)CO)C[C@@H]3O[C@H]1C[C@H](N)[C@H](O)[C@H](C)O1 [DOXORUBICIN]
[2]
  IC50: 0.53 µM

## O=C1O[C@H]([C@@H](O)CO)C(O)=C1O [ASCORBIC ACID]
[6]
  IC50: 18.3 µM
[7]
  IC50: 27.3 µM

## CC(C)=CCC/C(C)=C/COc1cc(O)c2c(=O)cc(-c3ccccc3)oc2c1
[1]
  IC50: > 20 µM
[2]
  IC50: > 20 µM
[3]
  IC50: > 20 µM
[4]
  IC50: > 20 µM
[5]
  IC50: > 20 µM

## Cc1c(C)c2c(c(C)c1O)CCC(C)(C(=O)O)O2 (stereo not drawn) [TROLOX]
[6]
  IC50: 16.8 µM
[7]
  IC50: 22.7 µM

## COc1cc2oc(-c3ccccc3)cc(=O)c2c(O)c1O
[1]
  IC50: > 40 µM
[6]
  IC50: 20.2 µM
[2]
  IC50: 29.4 µM
[3]
  IC50: > 40 µM
[4]
  IC50: 30.9 µM
[7]
  IC50: 28.4 µM
[5]
  IC50: > 40 µM

## O=c1[nH]cc(F)c(=O)[nH]1 [FLUOROURACIL]
[1]
  IC50: 40.2 µM
[2]
  IC50: 32.7 µM
[5]
  IC50: > 100 µM

## CC(C)=CCOc1cc2oc(-c3ccccc3)cc(=O)c2c(O)c1O
[1]
  IC50: > 20 µM
[6]
  IC50: 18.8 µM
[2]
  IC50: 8.6 µM
[3]
  IC50: > 20 µM
[4]
  IC50: > 20 µM
[7]
  IC50: 24 µM
[5]
  IC50: > 20 µM

## COc1cc(O)c2c(=O)cc(-c3ccccc3)oc2c1 [TECHTOCHRYSIN]
[1]
  IC50: > 20 µM
[2]
  IC50: > 20 µM
[3]
  IC50: > 20 µM
[4]
  IC50: > 20 µM
[5]
  IC50: > 20 µM

## COc1c(O)cc(O)c2c(=O)cc(-c3ccccc3)oc12 [WOGONIN]
[1]
  IC50: 37.9 µM
[2]
  IC50: 35.1 µM
[3]
  IC50: > 40 µM
[4]
  IC50: 36.9 µM
[5]
  IC50: 39.6 µM
